The term AUC(0-inf) denotes the area under the concentration-time curve extrapolated to infinity. Broadly, the Cmax is the peak of the concentration-time curve.

This is an account of results in patent US11633416B1, “Oral formulations of CD73 compounds” (ARCUS BIOSCIENCES, INC., priority 2020, dated 2023).

Like-named read-outs stand apart in the source and are kept apart here.

This series in a line: Oral exposure in cynomolgus monkeys, compound alone or with excipient in capsules; plasma by LC-MS/MS. The class given is in vivo. As to conditions: for Oral bioavailability using calcium chelating excipients: cynomolgus monkeys, capsules, versus compound alone. The text has this:
The influence of different excipients on the bioavailability of Compound (Ia), Compound 2 and Compound 3 in cynomolgus monkeys was investigated. The excipients tested were sodium phytate, sodium citrate, sodium EDTA, cyclodextrin, sodium taurocholate, sodium polystyrene sulfate, sodium caprate, sodium phosphate, carbomer 971P and palmitoyl carnitine chloride. Generally, an appropriate quantity (as indicated in Table 1) of Compound (Ia), Compound 2 or Compound 3 and an excipient were mixed to homogeneity and transferred to capsules for dosing. In one example, Compound (Ia) (500 mg assay, 1.063 correction factor applied for to account for purity) and 2.75 g of sodium phytate (Sigma) were combined in a mortar and pestle. The mixture was ground to homogeneity then 530 mg of the white powder was transferred to enteric capsules (Size 0) prior to dosing.
[…] Compound (Ia), Compound 2 or Compound 3, either alone, or with excipient, in an enteric capsule was administered via an oral pet piller. Blood samples were collected from a peripheral vessel at designated time points, and centrifuged to obtain plasma.
Plasma samples obtained at each time point from the subjects were prepared by protein precipitation. An aliquot of 50 μL sample was added with 150 μL acetonitrile containing an internal standard ([[[(2R,3S,4R,5R)-5-[6-chloro-4-[[(1S)-2,2,2-trideuterio-1-(2-fluorophenyl)ethyl]amino]pyrazolo[3,4-b]pyridin-1-yl]-3,4-dihydroxyoxolan-2-yl]-dideuteriomethoxy]-hydroxyphosphoryl]methylphosphonic acid, 200 ng/mL in Acetonitrile). The mixture was vortexed for 15 min and then centrifuged at 4500 rpm for 15 min at 4° C. (Sorvall Legend XTR centrifuge, Thermo Scientific, Langenselbold, Germany). 80 μL of the resulting supernatant was transferred into a new plate and mixed with 160 μL water followed by LC-MS/MS analysis.
• API 4000 mass spectrometer (Applied Biosystems, Foster City, Calif.) • Shimadzu Nexera X^2 UHPLC System (Shimadzu Scientific Instruments, Canby, Oreg.) Column: SHISEIDO CAPCELL PAK INERT ADME S3 (2.00 mm×50 mm, Part No. 79001) Mobile Phase A: 8.6 mM Triethylamine, 100 mM HFIP (1,1,1,3,3,3-Hexafluoro-2-propanol) in Water Mobile Phase B: 8.6 mM Triethylamine, and 100 mM HFIP in [Acetonitrile:water (95:5, v/v) Needle wash (weak & strong): Acetone:MeCN:Water (80:20:20, v/v/v) Flow Rate: 0.50 mL/min HPLC Gradient:
• Ionization Mode: Electrospray (ESI) • Detection Mode: Negative MRM (Q1/Q3 transitions: m/z 579.0/157.0 for Compound (Ia) or Compound 3; m/z 584.0/157.0 for Internal Standard); (Q1/Q3 transitions m/z 562.2/157.0 for Compound 2; m/z 584.0/157.0 for Internal Standard)

Setting [1] is: male, cynomolgus monkey, plasma, po, 50 mg, enteric capsule, with 195 mg sodium citrate, 3 mg SDS, fasted.
The mark [2] stands for this setting: male, cynomolgus monkey, plasma, po, 50 mg, enteric capsule, with 275 mg sodium phytate (Sigma-Aldrich, ≥5 mol sodium/mol), fasted.
The mark [3] stands for this setting: male, cynomolgus monkey, plasma, po, 50 mg, oral, enteric capsule, dose 50 mg, with 195 mg sodium citrate, 3 mg SDS, fasted, read-out: Cmax.
The mark [4] stands for this setting: male, cynomolgus monkey, plasma, po, 50 mg, oral, enteric capsule, dose 50 mg, with 275 mg sodium phytate (Sigma-Aldrich, ≥5 mol sodium/mol), fasted, read-out: Cmax.
The mark [5] stands for this setting: male, cynomolgus monkey, plasma, po, 50 mg, Table 3: dose 50 mg, dosed with 195 mg trisodium citrate and 3 mg SDS, enteric capsules.
Where [6] appears, read: male, cynomolgus monkey, plasma, po, 50 mg, Table 3: dose 50 mg, dosed with 195 mg trisodium citrate and 3 mg SDS, enteric capsules, read-out: Cmax.
Setting [7] is: male, cynomolgus monkey, plasma, po, 50 mg, Table 4: dose 50 mg, dosed with 275 mg sodium phytate, enteric capsules.
[8] abbreviates: male, cynomolgus monkey, plasma, po, 50 mg, Table 4: dose 50 mg, dosed with 275 mg sodium phytate, enteric capsules, read-out: Cmax.
Setting [9] is: oral, enteric capsule, dose 50 mg, with 275 mg sodium phytate (Sigma-Aldrich, ≥5 mol sodium/mol), fasted.

In the case of `C[C@H](Nc1nc(Cl)nc2c1cnn2[C@@H]1O[C@H](COP(=O)(O)CP(=O)(O)O)[C@@H](O)[C@H]1O)c1ccccc1` [2 (Na)], the AUC(0-inf) was determined as 918 ng·h/mL (male, cynomolgus monkey, plasma, po, 10 mg, enteric capsule, neat, fasted); 4880 ng·h/mL (male, cynomolgus monkey, plasma, po, 10 mg, enteric capsule, with 195 mg sodium citrate, 3 mg SDS, fasted); 8840 ng·h/mL (male, cynomolgus monkey, plasma, po, 10 mg, enteric capsule, with 195 mg sodium citrate, fasted); 6010 ng·h/mL (male, cynomolgus monkey, plasma, po, 10 mg, enteric capsule, with 275 mg sodium phytate (Sigma-Aldrich), fasted); 67100 ng·h/mL under setting [1]; 105000 ng·h/mL under setting [2]. For the same molecule, the Cmax runs as follows: (male, cynomolgus monkey, plasma, po, 10 mg, oral, enteric capsule, dose 10 mg, neat, fasted, read-out: Cmax) 161 ng/mL; (male, cynomolgus monkey, plasma, po, 10 mg, oral, enteric capsule, dose 10 mg, with 195 mg sodium citrate, 3 mg SDS, fasted, read-out: Cmax) 997 ng/mL; (male, cynomolgus monkey, plasma, po, 10 mg, oral, enteric capsule, dose 10 mg, with 195 mg sodium citrate, fasted, read-out: Cmax) 791 ng/mL; (male, cynomolgus monkey, plasma, po, 10 mg, oral, enteric capsule, dose 10 mg, with 275 mg sodium phytate (Sigma-Aldrich), fasted, read-out: Cmax) 824 ng/mL; under setting [3], 2530 ng/mL; under setting [4], 2320 ng/mL. Further, the “Exposure Enhancement” value runs as follows: (oral, enteric capsule, dose 10 mg, with 195 mg sodium citrate, 3 mg SDS, relative to 10 mg dose of 2(Na) without absorption enhancer) 5.3-fold^e; (oral, enteric capsule, dose 10 mg, with 195 mg sodium citrate, relative to 10 mg dose of 2(Na) without absorption enhancer) 9.6-fold^e; (oral, enteric capsule, dose 10 mg, with 275 mg sodium phytate (Sigma-Aldrich), relative to 10 mg dose of 2(Na) without absorption enhancer) 6.6-fold^e.

In the case of `C[C@H](Nc1nc(Cl)nc2c1cnn2[C@@H]1O[C@H](COP(=O)(O)CP(=O)(O)O)[C@@H](O)[C@H]1O)c1ccccc1` [2 (Neutral)], the AUC(0-inf) was 129000 ng·h/mL (male, cynomolgus monkey, plasma, po, 50 mg, enteric capsule, with 195 mg sodium citrate, 6 mg sodium dodecyl sulfate (SDS), fasted) and 151000 ng·h/mL (male, cynomolgus monkey, plasma, po, 50 mg, gelatin capsule, with 195 mg sodium citrate, 6 mg SDS, fasted). The Cmax came to 3140 ng/mL (male, cynomolgus monkey, plasma, po, 50 mg, oral, enteric capsule, dose 50 mg, with 195 mg sodium citrate, 6 mg sodium dodecyl sulfate (SDS), fasted, read-out: Cmax) and 3180 ng/mL (male, cynomolgus monkey, plasma, po, 50 mg, oral, gelatin capsule, dose 50 mg, with 195 mg sodium citrate, 6 mg SDS, fasted, read-out: Cmax).

For `C[C@H](Nc1cc(Cl)nc2c1cnn2[C@@H]1O[C@H](COP(=O)(O)CP(=O)(O)O)[C@@H](O)[C@H]1O)c1ccc(F)cc1` [3 ( 3Na)], the total exposure AUC(0-inf) was 38700 ng·h/mL under setting [1] and 149000 ng·h/mL under setting [2]. The peak concentration (Cmax) reads like this: under setting [3], 1320 ng/mL; under setting [4], 3550 ng/mL.

As for `C[C@H](Nc1cc(Cl)nc2c1cnn2[C@@H]1O[C@H](COP(=O)(O)CP(=O)(O)O)[C@@H](O)[C@H]1O)c1ccc(F)cc1` [Compound 3], the “Oral bioavailability using calcium chelating excipients” value was “Improved”. The molecule further came in with an AUC(0-inf) under setting [5] of 38700 ng·h/mL. Also, under setting [6], the highest concentration (Cmax) is 1320 ng/mL. Under setting [7], this molecule yielded an area under the curve AUC(0-inf) of 149000 ng·h/mL. Besides, the Cmax under setting [8] came out at 3550 ng/mL.

Regarding `C[C@H](Nc1cc(Cl)nc2c1cnn2[C@@H]1O[C@H](COP(=O)(O)CP(=O)(O)O)[C@@H](O)[C@H]1O)c1ccccc1F` [Compound (Ia), (((((2R,3S,4R,5R)-5-(6-chloro-4-(((S)-1-(2-fluorophenyl)ethyl)amino)-1H-pyrazolo[3,4-b]pyridin-1-yl)-3,4-dihydroxytetrahydrofuran-2-yl)methoxy)(hydroxy)phosphoryl)methyl)phosphonic acid], the “Oral bioavailability using calcium chelating excipients” value is given as “Improved”. Moreover, under setting [5], the AUC(0-inf) is 22200 ng·h/mL. In addition, the Cmax under setting [6] is 922 ng/mL. The area under the curve AUC(0-inf) under setting [7] was 122000 ng·h/mL. For the same molecule, the Cmax under setting [8] came to 3680 ng/mL.

Regarding `C[C@H](Nc1cc(Cl)nc2c1cnn2[C@@H]1O[C@H](COP(=O)(O)CP(=O)(O)O)[C@@H](O)[C@H]1O)c1ccccc1F` [Ia (Neutral), (((((2R,3S,4R,5R)-5-(6-chloro-4-(((S)-1-(2-fluorophenyl)ethyl)amino)-1H-pyrazolo[3,4-b]pyridin-1-yl)-3,4-dihydroxytetrahydrofuran-2-yl)methoxy)(hydroxy)phosphoryl)methyl)phosphonic acid], the “Exposure Enhancement” value (oral, enteric capsule, dose 50 mg, with 275 mg sodium phytate (Sigma-Aldrich), relative to 50 mg Ia ( 3Na) without absorption enhancer) is listed as 7.6-fold^b. Under setting [9], the “AUC0-∞” value is on record as 102,000 h*ng/mL and the Cmax is listed as 2,790 ng/mL.
